Experimental data as given in PMC11501026, “L-Arginine and asymmetric dimethylarginine (ADMA) transport across the mouse blood-brain and blood-CSF barriers: Evidence of saturable transport at both interfaces and CNS to blood efflux” (PLOS ONE, 2024).
Several values for one entry are separate records, joined by “and”; a condition that tells them apart may be missing. Equal values may be shown once. Where a name gives a salt, the structure may show the parent alone.

Test: in situ brain/choroid plexus perfusion: CNS uptake of [^3H]-arginine, [^3H]-ADMA and [^14C]-sucrose (multiple-time and single-time uptake analysis)
Conditions: for uptake into caudate nucleus / uptake into choroid plexus / uptake into frontal cortex / uptake into occipital cortex / Kp at 30 min, 62.5 nM: 30 mins; for Kp at […] / Kp at 20 min, 62.5 nM / Kp at 30 min, 62.5 nM / Kp at 10 min, 62.5 nM / Kp at […], 62.5 nM / Kp at 10 min: male, BALB/c, mouse; for Kp at […] / Kp at […], 62.5 nM: 2.5 mins
[1] = CONTROL, 10 mins, Balb/c ♂, 5ml/min, mean
[2] = [3H] ADMA + [14C] Sucrose, Balb/c ♂, 5ml/min, individual mice
[3] = [3H] ADMA + [14C] Sucrose, Balb/c ♂, 5ml/min, mean
[4] = CSF, Difference (ADMA minus Sucrose), 5ml/min, mean
[5] = CSF, [3H] ADMA and [14C] Sucrose uptake, 5ml/min, mean
[6] = caudate nucleus, Difference (ADMA minus Sucrose), 5ml/min, mean
[7] = caudate nucleus, [3H] ADMA and [14C] Sucrose uptake, 5ml/min, mean
[8] = cerebellum, Difference (ADMA minus Sucrose), 5ml/min, mean
[9] = cerebellum, [3H] ADMA and [14C] Sucrose uptake, 5ml/min, mean
[10] = choroid plexus, Difference (ADMA minus Sucrose), 5ml/min, mean
[11] = choroid plexus, [3H] ADMA and [14C] Sucrose uptake, 5ml/min, mean
[12] = frontal cortex, Difference (ADMA minus Sucrose), 5ml/min, mean
[13] = frontal cortex, [3H] ADMA and [14C] Sucrose uptake, 5ml/min, mean
[14] = hippocampus, Difference (ADMA minus Sucrose), 5ml/min, mean
[15] = hippocampus, [3H] ADMA and [14C] Sucrose uptake, 5ml/min, mean
[16] = hypothalamus, Difference (ADMA minus Sucrose), 5ml/min, mean
[17] = hypothalamus, [3H] ADMA and [14C] Sucrose uptake, 5ml/min, individual mouse
[18] = hypothalamus, [3H] ADMA and [14C] Sucrose uptake, 5ml/min, mean
[19] = occipital cortex, Difference (ADMA minus Sucrose), 5ml/min, mean
[20] = occipital cortex, [3H] ADMA and [14C] Sucrose uptake, 5ml/min, mean
[21] = pineal gland, Difference (ADMA minus Sucrose), 5ml/min, mean
[22] = pineal gland, [3H] ADMA and [14C] Sucrose uptake, 5ml/min, mean
[23] = pituitary gland, Difference (ADMA minus Sucrose), 5ml/min, mean
[24] = pituitary gland, [3H] ADMA and [14C] Sucrose uptake, 5ml/min, mean
[25] = pons, Difference (ADMA minus Sucrose), 5ml/min, mean
[26] = pons, [3H] ADMA and [14C] Sucrose uptake, 5ml/min, mean
[27] = thalamus, Difference (ADMA minus Sucrose), 5ml/min, mean
[28] = thalamus, [3H] ADMA and [14C] Sucrose uptake, 5ml/min, individual mouse
[29] = thalamus, [3H] ADMA and [14C] Sucrose uptake, 5ml/min, mean

Description: All animals used in procedures were adult male BALB/c mice (between 23 g and 25 g) sourced from Harlan Laboratories, Oxon, UK, unless otherwise stated.
Animals were weighed immediately before the administration of the anaesthetic to ensure correct dosage. Domitor® (medetomidine hydrochloride) and Vetalar® (ketamine) were both purchased from Harlan Laboratories (Cambridge, UK). All animals were terminally anaesthetised (2 mg/kg Domitor® and 150 mg/kg Vetalar® injected intraperitoneally), and a lack of self-righting and paw-withdrawal reflexes (as surrogate indicators of consciousness) thoroughly checked prior to and during all procedures. If needed, additional anaesthetic was administered via the same route. […] At the end of the in situ brain perfusion procedure the animal was killed by decapitated under non-recovery anaesthesia. Animals were heparinised with 100 units heparin (in 0.9% m/v NaCl(aq), Harlan Laboratories; Oxon, UK), administered via the intraperitoneal route prior to surgery.
The in situ brain/choroid plexus perfusion method is designed to directly perfuse the brain with artificial plasma via a cannula placed in the heart. Artificial plasma is prepared to mimic the ionic composition of blood, and transporter inhibitors can be added in known concentrations and delivered to the brain for defined periods of time.
The left ventricle of the heart was cannulated with a 25G x 10 mm butterfly-winged needle connected to the perfusion circuit. […] The right atrium of the heart was sectioned to allow outflow of the artificial plasma. […] Radiolabelled and unlabelled test molecules were infused into the inflowing artificial plasma for periods up to 30 minutes.
At the set perfusion time a CSF sample was taken by inserting a pulled glass micropipette connected to silicon tubing and a syringe into the cisterna magna. Gentle suction was applied, and CSF was withdrawn. Only clear CSF samples were processed and taken for analysis. Samples contaminated with blood were discarded. The animal was then decapitated and the brain removed. Specific brain samples including the circumventricular organs (CVOs) were taken using a Leica S4E L2 stereomicroscope (Leica; Buckinghamshire, UK). The brain samples included the frontal cortex, caudate nucleus, occipital cortex, hippocampus, hypothalamus, thalamus, pons and cerebellum. The CVOs included the choroid plexus, pituitary gland and pineal gland.
All samples (brain regions, capillary depletion brain homogenate, pellet and supernatant, CVOs, CSF and plasma samples) were solubilised in 0.5 mL tissue solubiliser (Solvable; Perkin-Elmer; Boston, MA, USA). After incubating the samples at room temperature for 48 h, 4 mL scintillation fluid (Lumasafe®; Perkin-Elmer; Boston, MA, USA) was added to each before vigorous vortexing.

CN(C)C(N)=NCCC[C@H](N)C(=O)O [ADMA, N^G,N^G-dimethylarginine dihydrochloride]
Difference (ADMA minus Sucrose), thalamus [1]: 0.21 | [3H] ADMA and [14C] Sucrose uptake, caudate nucleus [1]: 0.2609 | [3H] ADMA and [14C] Sucrose uptake, cerebellum [1]: 0.1856 | [3H] ADMA and [14C] Sucrose uptake, choroid plexus [1]: 2.881 | [3H] ADMA and [14C] Sucrose uptake, hippocampus [1]: 0.2336 | [3H] ADMA and [14C] Sucrose uptake, hypothalamus [1]: 0.341 | [3H] ADMA and [14C] Sucrose uptake, occipital cortex [1]: 0.2471 | [3H] ADMA and [14C] Sucrose uptake, pituitary gland [1]: 1.982 | [3H] ADMA and [14C] Sucrose uptake, pons [1]: 0.2825 | [3H] ADMA and [14C] Sucrose uptake, thalamus [1]: 0.2291 | [3H] ADMA and [14C] Sucrose uptake, frontal cortex (CONTROL, 10 mins, Balb/c ♂, 5ml/min, mean, in mL/100 g): 0.273 | uptake into caudate nucleus [2]: 0.09268 and 0.2487 and 0.1281 and 0.07499 and 0.1274 | uptake into choroid plexus [2]: 0.5413 and 0.9894 and 0.4672 and 0.3444 and 0.47 | uptake into frontal cortex [2]: 0.1003 and 0.2556 and 0.1339 and 0.07655 and 0.1326 | uptake into occipital cortex [2]: 0.1057 and 0.2389 and 0.1237 and 0.07486 and 0.1517 | uptake into caudate nucleus [3]: 0.1344 | uptake into choroid plexus [3]: 0.5624 | uptake into frontal cortex [3]: 0.1398 | uptake into occipital cortex [3]: 0.139 | Kp at […] [4]: 0.034 | Kp at 20 min, 62.5 nM (CSF, Difference (ADMA minus Sucrose), 5ml/min, individual mouse): 0.197 | Kp at 20 min, 62.5 nM [4]: 0.225 | Kp at 30 min, 62.5 nM [4]: 0.349 | Kp at 10 min, 62.5 nM (CSF, Difference (ADMA minus Sucrose), CONTROL, 10 mins, 5ml/min, mean): 0.267 | Kp at […] [5]: 0.122 | Kp at 20 min, 62.5 nM [5]: 0.433 | Kp at 10 min, 62.5 nM (CSF, [3H] ADMA and [14C] Sucrose uptake, CONTROL, 10 mins, 5ml/min, mean): 0.273 | Kp at 30 min, 62.5 nM (CSF, uptake into CSF, [3H] ADMA + [14C] Sucrose, Balb/c ♂, 5ml/min, mean): 0.721 | Kp at […], 62.5 nM [6]: 0.0936 | Kp at 20 min, 62.5 nM [6]: 0.256 | Kp at […], 62.5 nM [7]: 0.107 | Kp at 20 min, 62.5 nM [7]: 0.28 | Kp at […] [8]: 0.0947 | Kp at 20 min, 62.5 nM [8]: 0.273 | Kp at […] [9]: 0.112 | Kp at 20 min, 62.5 nM [9]: 0.3 | Kp at […], 62.5 nM [10]: 0.671 | Kp at 20 min, 62.5 nM [10]: 1.92 | Kp at […], 62.5 nM (choroid plexus, [3H] ADMA and [14C] Sucrose uptake, 5ml/min, individual mouse): 0.645 | Kp at […], 62.5 nM [11]: 0.855 | Kp at 20 min, 62.5 nM [11]: 2.24 | Kp at […], 62.5 nM (frontal cortex, Difference (ADMA minus Sucrose), 5ml/min, individual mouse): 0.0723 | Kp at […], 62.5 nM [12]: 0.0986 | Kp at 20 min, 62.5 nM [12]: 0.276 | Kp at […], 62.5 nM (frontal cortex, [3H] ADMA and [14C] Sucrose uptake, 5ml/min, individual mouse): 0.0847 | Kp at […], 62.5 nM [13]: 0.113 | Kp at 20 min, 62.5 nM [13]: 0.302 | Kp at […], 62.5 nM (hippocampus, Difference (ADMA minus Sucrose), 5ml/min, individual mouse): 0.0843 | Kp at […], 62.5 nM [14]: 0.1 | Kp at 20 min, 62.5 nM [14]: 0.254 | Kp at […], 62.5 nM (hippocampus, [3H] ADMA and [14C] Sucrose uptake, 5ml/min, individual mouse): 0.0898 | Kp at […], 62.5 nM [15]: 0.109 | Kp at 20 min, 62.5 nM [15]: 0.273 | Kp at […] (hypothalamus, Difference (ADMA minus Sucrose), 5ml/min, individual mouse): 0.0965 | Kp at […] [16]: 0.0993 | Kp at 20 min, 62.5 nM [16]: 0.364 | Kp at […] [17]: 0.114 | Kp at […] [18]: 0.127 | Kp at 20 min, 62.5 nM [17]: 0.38 | Kp at 20 min, 62.5 nM [18]: 0.416 | Kp at […], 62.5 nM (occipital cortex, Difference (ADMA minus Sucrose), 5ml/min, individual mouse): 0.0744 | Kp at […], 62.5 nM [19]: 0.086 | Kp at 20 min, 62.5 nM [19]: 0.268 | Kp at […], 62.5 nM (occipital cortex, [3H] ADMA and [14C] Sucrose uptake, 5ml/min, individual mouse): 0.083 | Kp at […], 62.5 nM [20]: 0.0969 | Kp at 20 min, 62.5 nM [20]: 0.293 | Kp at […], 62.5 nM [21]: 0.235 | Kp at 20 min, 62.5 nM [21]: 0.986 | Kp at 30 min, 62.5 nM [21]: 0.416 | Kp at 10 min (pineal gland, Difference (ADMA minus Sucrose), CONTROL, 10 mins, 5ml/min, mean): 1.94 | Kp at […], 62.5 nM [22]: 0.527 | Kp at 20 min, 62.5 nM [22]: 1.32 | Kp at 10 min (pineal gland, [3H] ADMA and [14C] Sucrose uptake, CONTROL, 10 mins, 5ml/min, mean): 2.56 | Kp at 30 min, 62.5 nM (pineal gland, uptake into pineal gland, [3H] ADMA + [14C] Sucrose, Balb/c ♂, 5ml/min, mean): 0.614 | Kp at […] [23]: 0.585 | Kp at 20 min, 62.5 nM [23]: 1.19 | Kp at […] [24]: 0.761 | Kp at 20 min, 62.5 nM [24]: 1.4 | Kp at […] [25]: 0.0907 | Kp at 20 min, 62.5 nM [25]: 0.306 | Kp at […] (pons, [3H] ADMA and [14C] Sucrose uptake, 5ml/min, individual mouse): 0.0924 | Kp at […] [26]: 0.117 | Kp at 20 min, 62.5 nM [26]: 0.347 | Kp at […] (thalamus, Difference (ADMA minus Sucrose), 5ml/min, individual mouse): 0.0741 | Kp at […] [27]: 0.0969 | Kp at 20 min, 62.5 nM [27]: 0.282 | Kp at […] [28]: 0.0799 | Kp at […] [29]: 0.108 | Kp at 20 min, 62.5 nM [28]: 0.331 | Kp at 20 min, 62.5 nM [29]: 0.312 | CNS-to-blood efflux (multiple-time uptake studies, loss of linearity): presence of CNS-to-blood efflux
